# Measurements reported in patent US7348359B2, “Retinoid X receptor modulators” (Eli Lilly and Company, priority 2001, dated 2008).
# Columns and labels:
# RXR α = biological target: T1, RXR α (Homo sapiens, UniProt P19793); experiment: RXR α binding, Ki from IC50 by Cheng-Prussof equation using tritiated LGD1069; conditions: determined from IC50 values by the Cheng-Prussof equation using tritiated LGD1069; read-out: Bind RXR α Ki
# T1 sequence (P19793 1-462): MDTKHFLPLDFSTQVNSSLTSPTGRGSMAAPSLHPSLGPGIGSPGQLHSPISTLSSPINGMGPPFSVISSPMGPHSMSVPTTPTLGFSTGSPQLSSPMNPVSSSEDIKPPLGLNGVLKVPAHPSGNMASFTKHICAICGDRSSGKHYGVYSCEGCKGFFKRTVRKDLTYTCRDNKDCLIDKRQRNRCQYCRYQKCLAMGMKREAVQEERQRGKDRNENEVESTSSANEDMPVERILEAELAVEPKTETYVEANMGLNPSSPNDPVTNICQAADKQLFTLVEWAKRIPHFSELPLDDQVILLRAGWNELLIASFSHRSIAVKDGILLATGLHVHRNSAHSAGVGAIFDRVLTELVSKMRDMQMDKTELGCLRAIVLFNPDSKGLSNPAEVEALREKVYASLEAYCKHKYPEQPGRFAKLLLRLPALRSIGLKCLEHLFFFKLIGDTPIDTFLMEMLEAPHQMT
# RXR:PPARγ = biological target: T2, RXR:PPARγ (Homo sapiens, UniProt P19793); experiment: RXR:PPARγ synergy with BRL49653 in CV-1 cells; format: cell-based; conditions: maximal response in presence of 100 nM BRL49653 (RXR:PPARγ) relative to maximal response of BRL49653 alone
# T2 construct: host or cells: CV-1
# T2 sequence (P19793 1-462): T1 sequence (P19793 1-462)
# T2 sequence (P37231 1-505 partner): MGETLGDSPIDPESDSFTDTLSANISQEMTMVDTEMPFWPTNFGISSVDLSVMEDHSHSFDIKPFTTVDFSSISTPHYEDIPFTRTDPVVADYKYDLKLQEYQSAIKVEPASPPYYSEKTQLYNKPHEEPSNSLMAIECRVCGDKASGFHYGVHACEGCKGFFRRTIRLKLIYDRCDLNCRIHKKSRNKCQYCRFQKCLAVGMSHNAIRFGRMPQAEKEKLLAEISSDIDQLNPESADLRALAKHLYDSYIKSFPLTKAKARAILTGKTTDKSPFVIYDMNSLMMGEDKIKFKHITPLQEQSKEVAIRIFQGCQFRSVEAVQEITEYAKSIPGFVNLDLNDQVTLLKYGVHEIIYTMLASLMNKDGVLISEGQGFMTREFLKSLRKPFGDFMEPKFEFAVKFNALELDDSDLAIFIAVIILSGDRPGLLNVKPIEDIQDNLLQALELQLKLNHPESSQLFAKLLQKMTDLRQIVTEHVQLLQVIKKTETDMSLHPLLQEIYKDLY
# RXR:RXR = biological target: T3, RXR:RXR (Homo sapiens, UniProt P19793); experiment: RXR:RXR agonist/antagonist efficacy in CV-1 cells; format: cell-based; conditions: for RXR:RXR CV-1 (%) Antag: maximal repression (100%) in the presence of 32 nM LGD1069; for RXR:RXR CV-1 (%) Ag: maximal response relative to maximal response of ATRA
# T3 construct: host or cells: CV-1
# T3 sequence (P19793 1-462): T1 sequence (P19793 1-462)
# RXR:RAR = biological target: T4, RXR:RAR (Homo sapiens, UniProt P19793); experiment: RXR:RAR agonist efficacy in CV-1 cells; format: cell-based; conditions: for RXR:RAR CV-1 (%) Ag.: maximal response relative to maximal response of ATRA; for activation of RXR:RAR heterodimers: statement on Table 1
# T4 construct: host or cells: CV-1
# T4 sequence (P19793 1-462): T1 sequence (P19793 1-462)
# T4 sequence (P10276 1-462 partner): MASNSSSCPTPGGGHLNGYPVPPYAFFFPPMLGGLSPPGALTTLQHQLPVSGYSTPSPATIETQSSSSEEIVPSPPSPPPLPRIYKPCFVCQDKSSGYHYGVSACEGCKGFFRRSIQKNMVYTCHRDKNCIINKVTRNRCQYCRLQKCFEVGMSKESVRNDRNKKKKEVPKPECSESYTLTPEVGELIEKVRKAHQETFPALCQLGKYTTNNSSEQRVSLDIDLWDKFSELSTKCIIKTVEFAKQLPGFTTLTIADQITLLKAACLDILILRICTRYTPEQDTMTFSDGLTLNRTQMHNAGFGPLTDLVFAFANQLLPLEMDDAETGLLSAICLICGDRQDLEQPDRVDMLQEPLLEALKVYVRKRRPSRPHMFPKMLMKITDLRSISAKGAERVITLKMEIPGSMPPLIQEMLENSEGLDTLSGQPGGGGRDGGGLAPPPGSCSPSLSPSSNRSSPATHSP
# db/db mouse = db/db mouse plasma glucose and triglycerides, oral gavage; format: in vivo; conditions: for db/db mouse Glu. (D 7): plasma glucose as a % correction relative to lean values on day 7 of treatment with 30 mg/kg/day; for db/db mouse Trigs. (D 3): plasma triglycerides as a % of control values on day 3 of treatment with 30 mg/kg/day
# [1] = tested on: transgenic mice carrying the human apo A-I gene; experiment: Mice transgenic for the human apolipoprotein A-I gene: HDL cholesterol and triglycerides; format: in vivo; conditions: transgenic mouse model; Table 1
# Description: Mice transgenic for the human apolipoprotein A-I gene (obtained from Jackson Laboratory) were used to evaluate PPARα mediated effects on high density lipoprotein (HDL) cholesterol. The mice were handled as described above for db/db mice, except that they were fed Purina 5001.
# When administered to transgenic mice carrying the human apo A-I gene, compounds of the invention are expected to increase HDL cholesterol. […] This effect is consistent with activation of PPARα and, in fact, in vivo these compounds synergize with the weak PPARα agonist fenofibrate.
# rodent models of NIDDM = experiment: Rodent models of NIDDM, effects of full RXR homodimer agonists
# Description: All animal experiments were conducted in a United States Department of Agriculture registered facility in accordance with NIH guidelines for the care and use of laboratory animals. Mice (obtained from Jackson Laboratory), ZDF rats (obtained from Genetic Models Inc.) and fa/fa rats (obtained from either Charles River, or Harlan) were maintained on 12-hour light/dark cycle. Mice (age 28-42 days) were caged in groups of 5-6. Rats (age 7 weeks) were housed individually. […] Compounds were administered at the specified doses by oral gavage on the morning of each day of any experiment. Blood samples were obtained 3 hours after dosing from fed animals under anesthesia and collected into heparinized capillary tubes from the tail vein.
SMILES,Ki (RXR α) [µM],PPARγ CV-1 (%) Synergy (RXR:PPARγ) [%],RXR:RXR CV-1 (%) Antag (RXR:RXR) [%],RXR:RXR CV-1 (%) Ag (RXR:RXR) [%],RXR:RAR CV-1 (%) Ag. (RXR:RAR) [%],activation of RXR:RAR heterodimers (RXR:RAR),db/db mouse Glu. (D 7) (db/db mouse) [%],db/db mouse Trigs. (D 3) (db/db mouse) [%],triglycerides [1],melting point [°C],other results
"CCOc1c(-c2cccc3cc(/C(C)=C/C(=O)O)oc23)cc(C(C)C)cc1C(C)C [Ex. 5, 3-[7-(2-Ethoxy-3,5-diisopropylphenyl)-benzo[b]furan-2-yl]-but-2-enoic acid]",0.022,140,10,33,3,do not activate RXR:RAR heterodimers,17,104,do not raise triglycerides,–,–
"C/C(=C\C(=O)O)c1cc2c(-c3cc(C(C)(C)C)cc(C(C)(C)C)c3OCC(F)F)cccc2s1 [Ex. 14, 3-{4-[2-(2,2-Difluoroethoxy)-3,5-di-tert-butylphenyl]-benzo[b]thien-2-yl}-but-2-enoic acid]",0.012,67,79,1,2,do not activate RXR:RAR heterodimers,35,139,do not raise triglycerides,–,–
CCCOc1c(-c2cccc3sc(/C(C)=C/C(=O)O)cc23)cc(C(C)C)cc1C(C)C [Ex. 15],0.014,109,81,4,6,do not activate RXR:RAR heterodimers,20,98,do not raise triglycerides,–,–
"CCCCOc1c(-c2c(F)ccc3sc(/C(C)=C/C(=O)O)cc23)cc(C(C)C)cc1C(C)C [Ex. 18, (E)-3-[4-(2-n-Butoxy-3,5-di-iso-propylphenyl)-5-fluorobenzo[b]thien-2-yl]-but-2-enoic acid]",0.054,40,86,1,4,do not activate RXR:RAR heterodimers,38,105,do not raise triglycerides,–,–
"CCCCOc1c(-c2nccc3ccc(/C(C)=C/C(=O)O)cc23)cc(C(C)C)cc1C(C)C [Example 53, 3-[1-(2-Butoxy-3,5-diisopropyl-phenyl)-isoquinolin-7-yl]-but-2(E)-enoic acid]",–,–,–,–,–,–,–,–,–,149.8,–
"CCCCOc1c(-c2ccnc3ccc(/C(C)=C/C(=O)O)cc23)cc(C(C)C)cc1C(C)C [Example 54, 3-[4-(2-Butoxy-3,5-diisopropyl-phenyl)quinolin-6-yl]-but-2(E)-enoic acid]",–,–,–,–,–,–,–,–,–,195.3,–
"CCCOc1c(-c2c[nH]c3ccc(/C(C)=C/C(=O)O)cc23)cc(C(C)(C)C)cc1C(C)(C)C [Example 63, 3-[3-(3,5-Di-tert-butyl-2-propoxy-phenyl)-1H-indol-5-yl]-but-2-enoic acid]",–,–,–,–,–,–,–,–,–,105 to 115,–
"C/C(=C\C(=O)O)c1ccc2[nH]cc(-c3cc(C(C)(C)C)cc(C(C)(C)C)c3OCC(F)F)c2c1 [Example 64, 3-{3-[3,5-Di-tert-butyl-2-(2,2-difluro-ethoxy)-phenyl]-1H-indol-5-yl}-but-2-enoic acid]",–,–,–,–,–,–,–,–,–,135 to 145,–
"C/C(=C\C(=O)O)c1ccc2[nH]cc(-c3cc(C(C)(C)C)cc(C(C)(C)C)c3OCC(F)(F)F)c2c1 [Example 65, 3-{3-[3,5-Di-tert-butyl-2-(2,2,2-trifluoro-ethoxy)-phenyl]-1H-indol-5-yl}-but-2-enoic acid]",–,–,–,–,–,–,–,–,–,146 to 153,–
Cc1cc2c(cc1C1(c3ccc(C(=O)O)cn3)CC1)C(C)(C)CCC2(C)C [LG100268],–,–,–,–,–,–,73,195,raises triglycerides,–,blood glucose levels (rodent models of NIDDM): lower blood glucose levels; thyroid hormone axis (rodent models of NIDDM): suppress the thyroid hormone axis; triglycerides (rodent models of NIDDM): raise triglycerides
"CN(C)C(=N)N=C(N)N [metformin, reference compound]",–,–,–,–,–,–,–,–,–,–,"plasma glucose (db/db mouse; 7 week old db/db mice, 300 mg/kg by daily oral gavage, maximum effect after first week, efficacy decreases over 3 subsequent weeks): lowers plasma glucose"
